In patent publication US11912788B2, “Probiotic molecules for reducing pathogen virulence” (priority 2017, dated 2024):

Legend:
[1] = test system: HilA; test: qPCR of HilA down-regulation in Salmonella, reference gene 16S; format: cell-based, Salmonella enteric typhimurium DT104; conditions: individual synthetic biopeptides, 50 μg per assay
Source text: The cell-free supernatant was separated using Sephadex G75 resin. The samples were separated and collected into fractions: Fraction 1 (>163000 Da), Fraction 2 (163000-14500 Da), Fraction 3(14500-1300 Da), Fraction 4 (1300-110 Da), Fraction 5 (110-10 Da). The samples were collected and assayed by qPCR using Salmonella enteric typhimurium DT104 strain. The down-regulation of HilA was compared to the reference gene 16S.
The active fraction from G75 size exclusion chromatography was further separated using reverse phase chromatography. The fractions from the reverse phase: Fraction 1 (0-2 min), Fraction 2 (2-4 min), Fraction 3 (4-16 min), Fraction 4 (16-32 min), Fraction 5 (32-40 min), Fraction 6 (40-58 min). The fractions were dried and neutralized to remove acetonitrile and trifluoroacetic acid from the solvent. The dried fractions were assayed using the same qPCR assay conditions as above. The fractions were analyzed by de novo sequencing at the University of Guelph Advance Analytical center. The peptides from the active fractions of 6 batches were compared and common peptides from batches were deduced.

[2] = test system: HylA; conditions: individual synthetic biopeptides, 50 μg per assay; reference gene GapA
Method: The La-5 cell-free supernatant used for these experiments was batch D4. […] Strain 1 alias UPEC99 and strain 2 alias UPEC804. The strains were cultured on LB agar. Two different media were tested LB and artificial urine medium.
The UPEC were grown for 4 hours in the presence of cell-free supernatant. The cells were harvested and the RNA was extracted. The RNA was treated with DNAse I to remove genomic DNA. The RNA was used as a template to make cDNA. The cDNA was assayed by qPCR and the gene expression was normalized to a reference gene and compared to a without cell-free media control.
The synthetic bio-peptides were analyzed at 50 μg per assay.

[3] = test system: Staphylococcus pseudintermedius (strain alias C260 22-2011 dtqa); test: Cefoxitin MIC testing with and without cell-free supernatant; format: cell-based; conditions: MSRP C260; Lysogeny Broth; 0 mg/mL dried cell-free (cefoxitin only)
Source text: (§1) Three methicillin resistant Staphylococci (MRS) strains were used in these experiments: 1) Staphylococcus pseudintermedius (strain alias C260 22-2011 dtqa), a clinical isolate from a dog skin infection; 2) Staphylococcus aureus (strain alias LA-414M SPA t034), a livestock-associated strain isolated from beef purchased from a grocery store in Charlottetown, PEI, Canada; and 3) Staphylococcus aureus (strain alias 81M SPA t008), isolated from poultry meat purchased from a grocery store in Charlottetown, PEI, Canada. All three MRS strains were provided by the Atlantic Veterinary College (AVC) at the University of Prince Edward Island. The methicillin-resistance of these strains was confirmed by AVC staff using an oxacillin disk diffusion method. The strains were originally cultured on sheep blood agar slants, and then transferred to lysogeny broth agar plates. Cefoxitin resuspended in methanol was used for antibiotic resistance testing, and growth was tested in two different media types, standard Lysogeny Broth and standard BBL™ Cation-Adjusted Mueller-Hinton Medium (Becton, Dickinson and Company). The minimum inhibitory concentrations (MICs) of the cefoxitin was determined for each strain in each respective medium in the presence and absence of the cell-free supernatant. Assays were performed according to the Clinical and Laboratory Standards Institute (CLSI) guidelines for MIC testing of Staphylococcal species [CLSI, 2015] as well as the European Committee for Antimicrobial Susceptibility Testing (EUCAST) of the European Society of Clinical Microbiology and Infectious Diseases [EUCAST, 2003].
(§2) The protocol for MIC testing was as follows. The cell-free supernatants were resuspended in the respective media and filter sterilized through a […] pore size filter. The required concentration of dried cell free supernatant was weighed and added at concentrations ranging from 0-60 mg/mL. Cefoxitin was added to obtain final concentrations ranging from 0-250 μg/mL. […] Following incubation, microplates were read at 600 nm using a microplate reader. […]

[4] = test system: Staphylococcus aureus (strain alias LA-414M SPA t034); test: as above; format: cell-based; conditions: MRSA LA 414M, 0 mg/mL dried cell-free (cefoxitin only)
Source text: as §1, §2

[5] = test system: Staphylococcus aureus (strain alias 81M SPA t008); test: Cefoxitin MIC testing with and without cell-free supernatant or its size exclusion fractions; format: cell-based
Source text: as §1, §2

Compound	Fold down-regulation HilA [1]	Fold down-regulation HylA [2]	also measured
YPVEPF	0.68 Fold	1.03 Fold	
CO[C@@]1(NC(=O)Cc2cccs2)C(=O)N2C(C(=O)O)=C(COC(N)=O)CS[C@@H]21 [Cefoxitin]			Range of Cefoxitin concentration to inhibition growth to O.D. < 0.1 (cefoxitin MIC) [3]: 125 to 175 µg/mL; Range of Cefoxitin concentration to inhibition growth to O.D. < 0.1 (cefoxitin MIC) ([4]; Lysogeny Broth): 30 to 40 µg/mL; Range of Cefoxitin concentration to inhibition growth to O.D. < 0.1 (cefoxitin MIC) ([4]; Mueller-Hinton Broth): 50 to 60 µg/mL; Range of Cefoxitin concentration to inhibition growth to O.D. < 0.1 (cefoxitin MIC) ([5]; MRSA 81M, Lysogeny Broth, 0 mg/mL dried cell-free (cefoxitin only)): 75 to 125 µg/mL; Range of Cefoxitin concentration to inhibition growth to O.D. < 0.1 (cefoxitin MIC) ([5]; MRSA 81M, Mueller-Hinton Broth, 0 mg/mL dried cell-free (cefoxitin only)): 75 to 100 µg/mL; Range of Cefoxitin concentration to inhibition growth to O.D. < 0.1 (cefoxitin MIC) ([5]; Table 4, Staphylococcus aureus 81M, Untreated (0 mg/mL), cefoxitin only): 60 to 75 µg/mL
CVLPPK	3.75 Fold	3.20 Fold	
MALPPK	19.56 Fold	9.06 Fold	
LKPTPEGD	11.08 Fold	4.69 Fold	
HLLPLP	2.93 Fold	2.64 Fold	
YPPGGP	2.93 Fold	3.56 Fold	
